Experimental data reported in patent US8722849B2, “Polypeptides” (Novo Nordisk A/S, priority 2011, dated 2014).
Starred links: 1 amine or outer side, 2 acyl side, 3 side chain; linkers in the order of their positions; H or OH if unused. Positions of bridges follow the written chain, without caps; N, C: chain ends. Non-standard residues stand in square brackets, D forms with d. Residues, ends and D or L forms follow the SMILES beside them. Groups on a side chain read outwards from the residue. *: point of attachment. C20 diacid = O=C(O)CCCCCCCCCCCCCCCCCCC(=O)*; C18 diacid = O=C(O)CCCCCCCCCCCCCCCCC(=O)*; γGlu = O=C(O)[C@H](CCC(=O)[*:2])N[*:1]; Orn = NCCC[C@H](N)C(=O)O; AEEA = NCCOCCOCC(=O)O

What was measured:
food intake = experiment: Assay (I) efficacy testing on appetite (food intake), ad libitum fed rat model; format: in vivo, Sprague Dawley (SD) rats; settings: 3 nmol/kg
Summary of the method: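 Food consumption was logged per animal every hour up to 7 h and again at 24 h (occasionally 48 h) after a single 0.01–3 mg/kg dose, given sc, po or ip at dark-phase onset. Ad libitum fed SD rats, 200–250 g, kept on inverted light/dark cycle; vehicle group included, outliers removed by Grubbs test.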

[1] = Assay (III) ThT fibrillation assay for physical stability; format: physicochemical
Summary of the method: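 Freshly prepared formulations, pH-adjusted, with 1 μM ThT; four or eight replicates incubated at 37 °C under 960 rpm orbital shaking. Fluorescence (ex 444/em 485 nm) read every 20 min; […]. Peptide concentration measured by RP-HPLC before and after the run.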

ThT pH 4.0 lag time ([1]; Table 8) [h] | ThT pH 4.0 lag time ([1]; ThT fibrillation assay) [h] | ThT pH 4.0 lag time (h) ([1]; ThT fibrillation assay) | ThT pH 4.0 lag time ([1]; Table 9) [h] | SMILES | Food intake reduction 0-24 h 3 nmol/kg (%) (food intake) | Food intake reduction 24-48 h 3 nmol/kg (%) (food intake)
>45 | >45 | >45 | >45 | CC[C@H](C)[C@H](NC(=O)[C@@H]1CCCN1C(=O)CNC(=O)[C@H](Cc1ccccc1)NC(=O)[C@H](CC(N)=O)NC(=O)[C@H](CCC(N)=O)NC(=O)[C@H](CO)NC(=O)[C@H](CO)NC(=O)[C@H](Cc1c[nH]cn1)NC(=O)[C@H](Cc1c[nH]cn1)NC(=O)[C@H](CC(C)C)NC(=O)[C@H](Cc1ccccc1)NC(=O)[C@H](CCC(=O)O)NC(=O)[C@H](C)NC(=O)[C@H](CC(C)C)NC(=O)[C@H](CCCNC(=N)N)NC(=O)[C@H](CCC(N)=O)NC(=O)[C@@H](NC(=O)[C@H](C)NC(=O)[C@@H]1CSSC[C@H](NC(=O)[C@H](CCCCN)NC(=O)CC[C@H](NC(=O)CCCCCCCCCCCCCCCCCCC(=O)O)C(=O)O)C(=O)N[C@@H](CC(N)=O)C(=O)N[C@@H]([C@@H](C)O)C(=O)N[C@@H](C)C(=O)N[C@@H]([C@@H](C)O)C(=O)N1)[C@@H](C)O)C(=O)N[C@@H](CC(C)C)C(=O)N1CCC[C@H]1C(=O)N1CCC[C@H]1C(=O)N[C@H](C(=O)N[C@@H](CC(N)=O)C(=O)N[C@H](C(=O)NCC(=O)N[C@@H](CO)C(=O)N[C@@H](Cc1c[nH]cn1)C(=O)N[C@H](C(=O)N[C@@H](Cc1ccc(O)cc1)C(N)=O)[C@@H](C)O)C(C)C)[C@@H](C)O [Example 117, N-alpha-[(S)-4-Carboxy-4-(19-carboxynonadecanoylamino)butyryl]-[Glu14,His17,Gln21,His35)-pramlintide] ({C20 diacid-γGlu}-KCNTATCATQRLAEFLHHSSQNFGPILPPTNVGSHTY-NH2; disulfide 2-7 (inferred); C-terminus assumed) | 50 | 35
– | – | 22 | – | CC[C@H](C)[C@H](NC(=O)[C@@H]1CCCN1C(=O)CNC(=O)[C@H](Cc1ccccc1)NC(=O)[C@H](CC(N)=O)NC(=O)[C@H](CC(N)=O)NC(=O)[C@H](CO)NC(=O)[C@H](CO)NC(=O)[C@H](CCCNC(=N)N)NC(=O)[C@H](Cc1c[nH]cn1)NC(=O)[C@H](CC(C)C)NC(=O)[C@H](Cc1ccccc1)NC(=O)[C@H](CCC(=O)O)NC(=O)[C@H](C)NC(=O)[C@H](CC(C)C)NC(=O)[C@H](CCCNC(=N)N)NC(=O)[C@H](CCC(N)=O)NC(=O)[C@@H](NC(=O)[C@H](C)NC(=O)[C@@H]1CSSC[C@H](NC(=O)[C@H](CCCN)NC(=O)[C@@H](CCCNC(=N)N)NC(=O)[C@@H](CCCNC(=N)N)NC(=O)COCCOCCNC(=O)COCCOCCNC(=O)CC[C@H](NC(=O)CCCCCCCCCCCCCCCCC(=O)O)C(=O)O)C(=O)N[C@@H](CC(N)=O)C(=O)N[C@@H]([C@@H](C)O)C(=O)N[C@@H](C)C(=O)N[C@@H]([C@@H](C)O)C(=O)N1)[C@@H](C)O)C(=O)N[C@@H](CC(C)C)C(=O)N1CCC[C@H]1C(=O)N1CCC[C@H]1C(=O)N[C@H](C(=O)N[C@@H](CC(N)=O)C(=O)N[C@H](C(=O)NCC(=O)N[C@@H](CO)C(=O)N[C@@H](CC(N)=O)C(=O)N[C@H](C(=O)N[C@@H](Cc1ccc(O)cc1)C(N)=O)[C@@H](C)O)C(C)C)[C@@H](C)O [Example 120, N-alpha-[2-(2-{2-[2-(2-{2-[(S)-4-Carboxy-4-(17-carboxyheptadecanoylamino)butyrylamino]ethoxy}ethoxy)acetylamino]ethoxy}ethoxy)acetyl]-D-Arg-D-Arg-[Orn1,Glu14,His17,Arg18]-pramlintide] ({C18 diacid-γGlu-AEEA-AEEA}-[dR][dR][Orn]CNTATCATQRLAEFLHRSSNNFGPILPPTNVGSNTY-NH2; disulfide 4-9 (inferred); C-terminus assumed) | 53 | 2

More lines, now with the values behind:

SMILES | ThT pH 4.0 lag time ([1]; Table 8) [h] | ThT pH 4.0 lag time ([1]; ThT fibrillation assay) [h] | ThT pH 4.0 lag time (h) ([1]; ThT fibrillation assay) | ThT pH 4.0 lag time ([1]; Table 9) [h] | Food intake reduction 0-24 h 3 nmol/kg (%) (food intake) | Food intake reduction 24-48 h 3 nmol/kg (%) (food intake)
CC[C@H](C)[C@H](NC(=O)[C@H](CCCCNC(=O)COCCOCCNC(=O)COCCOCCNC(=O)CC[C@H](NC(=O)CCCCCCCCCCCCCCCCC(=O)O)C(=O)O)NC(=O)CNC(=O)[C@H](Cc1ccccc1)NC(=O)[C@H](CC(N)=O)NC(=O)[C@H](CC(N)=O)NC(=O)[C@H](CO)NC(=O)[C@H](CO)NC(=O)[C@H](Cc1c[nH]cn1)NC(=O)[C@H](Cc1c[nH]cn1)NC(=O)[C@H](CC(C)C)NC(=O)[C@H](Cc1ccccc1)NC(=O)[C@H](CCC(=O)O)NC(=O)[C@H](C)NC(=O)[C@H](CC(C)C)NC(=O)[C@H](CCCNC(=N)N)NC(=O)[C@H](CCC(N)=O)NC(=O)[C@@H](NC(=O)[C@H](C)NC(=O)[C@@H]1CSSC[C@H](NC(=O)[C@@H](N)CCCCN)C(=O)N[C@@H](CC(N)=O)C(=O)N[C@@H]([C@@H](C)O)C(=O)N[C@@H](C)C(=O)N[C@@H]([C@@H](C)O)C(=O)N1)[C@@H](C)O)C(=O)N[C@@H](CC(C)C)C(=O)N1CCC[C@H]1C(=O)N1CCC[C@H]1C(=O)N[C@H](C(=O)N[C@@H](CC(N)=O)C(=O)N[C@H](C(=O)NCC(=O)N[C@@H](CO)C(=O)N[C@@H](CC(N)=O)C(=O)N[C@H](C(=O)N[C@@H](Cc1ccc(O)cc1)C(N)=O)[C@@H](C)O)C(C)C)[C@@H](C)O [Example 73, N-epsilon25-[2-(2-{2-[2-(2-{2-[(S)-4-Carboxy-4-(17-carboxyheptadecanoylamino)butyrylamino]ethoxy}ethoxy)acetylamino]ethoxy}ethoxy)acetyl]-[Glu14,His17,Lys25]-pramlintide] (H-KCNTATCATQRLAEFLHHSSNNFGK([AEEA-AEEA-γGlu-C18 diacid])ILPPTNVGSNTY-NH2; disulfide 2-7 (inferred); N-terminus and C-terminus assumed) | >45 | >45 | >45 | – | 29 | 2
CC[C@H](C)[C@H](NC(=O)[C@@H]1CCCN1C(=O)CNC(=O)[C@H](Cc1ccccc1)NC(=O)[C@H](CC(N)=O)NC(=O)[C@H](CC(N)=O)NC(=O)[C@H](CO)NC(=O)[C@H](CO)NC(=O)[C@H](Cc1c[nH]cn1)NC(=O)[C@H](CCCNC(=N)N)NC(=O)[C@H](CC(C)C)NC(=O)[C@H](Cc1ccccc1)NC(=O)[C@H](CCC(=O)O)NC(=O)[C@H](C)NC(=O)[C@H](CC(C)C)NC(=O)[C@H](CCCNC(=N)N)NC(=O)[C@H](CCC(N)=O)NC(=O)[C@@H](NC(=O)[C@H](C)NC(=O)[C@@H]1CSSC[C@H](NC(=O)[C@H](Cc2c[nH]cn2)NC(=O)CNC(=O)CC[C@H](NC(=O)CCCCCCCCCCCCCCCCCCC(=O)O)C(=O)O)C(=O)N[C@@H](CC(N)=O)C(=O)N[C@@H]([C@@H](C)O)C(=O)N[C@@H](C)C(=O)N[C@@H]([C@@H](C)O)C(=O)N1)[C@@H](C)O)C(=O)N[C@@H](CC(C)C)C(=O)N1CCC[C@H]1C(=O)N1CCC[C@H]1C(=O)N[C@H](C(=O)N[C@@H](CC(N)=O)C(=O)N[C@H](C(=O)NCC(=O)N[C@@H](CO)C(=O)N[C@@H](CC(N)=O)C(=O)N[C@H](C(=O)N1CCC[C@H]1C(N)=O)[C@@H](C)O)C(C)C)[C@@H](C)O [Example 89, N-alpha-[(S)-4-Carboxy-4-(19-carboxynonadecanoylamino)butyryl]-Gly-[His1,Glu14,Arg17,Pro37]-pramlintide] ({C20 diacid-γGlu}-GHCNTATCATQRLAEFLRHSSNNFGPILPPTNVGSNTP-NH2; disulfide 3-8 (inferred)) | >45 | >45 | >45 | >45 | 42 | 23
CC[C@H](C)[C@H](NC(=O)[C@@H]1CCCN1C(=O)CNC(=O)[C@H](Cc1ccccc1)NC(=O)[C@H](CC(N)=O)NC(=O)[C@H](CC(N)=O)NC(=O)[C@H](CO)NC(=O)[C@H](CO)NC(=O)[C@H](Cc1c[nH]cn1)NC(=O)[C@H](Cc1c[nH]cn1)NC(=O)[C@H](CC(C)C)NC(=O)[C@H](Cc1ccccc1)NC(=O)[C@H](CCC(=O)O)NC(=O)[C@H](C)NC(=O)[C@H](CC(C)C)NC(=O)[C@H](CCCNC(=N)N)NC(=O)[C@H](CCC(N)=O)NC(=O)[C@@H](NC(=O)[C@H](C)NC(=O)[C@@H]1CSSC[C@H](NC(=O)[C@H](CCCNC(=N)N)NC(=O)CNC(=O)CC[C@H](NC(=O)CCCCCCCCCCCCCCCCCCC(=O)O)C(=O)O)C(=O)N[C@@H](CC(N)=O)C(=O)N[C@@H]([C@@H](C)O)C(=O)N[C@@H](C)C(=O)N[C@@H]([C@@H](C)O)C(=O)N1)[C@@H](C)O)C(=O)N[C@@H](CC(C)C)C(=O)N1CCC[C@H]1C(=O)N1CCC[C@H]1C(=O)N[C@H](C(=O)N[C@@H](CC(N)=O)C(=O)N[C@H](C(=O)NCC(=O)N[C@@H](CO)C(=O)N[C@@H](CC(N)=O)C(=O)N[C@H](C(=O)N1CCC[C@H]1C(N)=O)[C@@H](C)O)C(C)C)[C@@H](C)O [Example 101, N-alpha-[(S)-4-Carboxy-4-(19-carboxynonadecanoylamino)butyryl]-Gly-[Arg1,Glu14,His17,Pro37]-pramlintide] ({C20 diacid-γGlu}-GRCNTATCATQRLAEFLHHSSNNFGPILPPTNVGSNTP-NH2; disulfide 3-8 (inferred)) | >45 | >45 | >45 | >45 | 70 | 90
